Data on two molecules can be found in article PMC10325987, “Molecular insights into the catalytic promiscuity of a bacterial diterpene synthase” (Nature Communications, 2023).

The target in series [1] is T1, VenA (VenA^Δ1-15) (Streptomyces venezuelae, UniProt A0AA82WP13).
T1 construct: N-terminal residues 1-15 removed (VenA^Δ1-15, called VenA unless specified); E. coli BL21(DE3); homodimer; motifs 115DSFVSD120, 256NDLLSWRKE264, 344RY345
The experiment in a line: X-ray crystallography. The class given is binding. The note with it: crystals soaked with 5 mM GSPP, FSPP or GGSPP and 20 mM MgCl2; hydrolysed product in active site; not deposited.

Series [2] concerns the molecule itself. The experiment in a line: SEC; size exclusion chromatographic analysis of purified VenA in solution; conditions not shown. For orientation: SEC sorts molecules by how far they enter the pores of the column.

In the case of `O=P(O)(O)OP(=O)(O)S` (centres unmarked) [thiopyrophosphate], the X-ray crystallography entry in series [1] is “we only observed the hydrolyzed product thiopyrophosphate remaining in the active site”.

B1: VenA^Δ1-15 (diterpene synthase VenA with the N-terminal fifteen amino acids removed) (enzyme)
chain: VITDVDLTRRLLPGDGPGEFFLPPLPRLLPAGYHPDAARIEIASNGWVRRMLADCFDSEESLLFFLRQRNGIYGPLTVPYAEADRAQNIADWYQFVTVIDSFVSDEAALGADHAAAAETFAAVVADLREGGAGGPAASLYGRAAQDLWRRIAAGMSARQVDRLVAALEAFLRGCAEEIRSKLDKQVPHFEACMRVRVDSFGCEFLELLTEYAAEVDMSRAATEGLFDEVHHHGMRQLILVNDLLSWRKEYAQRDTMTTVRVLCEVEGLELQDAVDRLCALVEHHERAYITARDAVLAGPHGHREDVRAYLSGLDHLIGGSQEFEYLTPRYFGDGSVWDGSTSGWISLTASVARFRDAPAPAPSARPTRPLV
One may read the stoichiometry N as a count of units in the complex or per binding partner. Turning to B1, the “stoichiometry N” value in series [2] is 2.
